Test [1] addresses T1, Alpha-mannosidase (Canavalia ensiformis) (UniProt C0HJB3).
T1 sequence (whole entry): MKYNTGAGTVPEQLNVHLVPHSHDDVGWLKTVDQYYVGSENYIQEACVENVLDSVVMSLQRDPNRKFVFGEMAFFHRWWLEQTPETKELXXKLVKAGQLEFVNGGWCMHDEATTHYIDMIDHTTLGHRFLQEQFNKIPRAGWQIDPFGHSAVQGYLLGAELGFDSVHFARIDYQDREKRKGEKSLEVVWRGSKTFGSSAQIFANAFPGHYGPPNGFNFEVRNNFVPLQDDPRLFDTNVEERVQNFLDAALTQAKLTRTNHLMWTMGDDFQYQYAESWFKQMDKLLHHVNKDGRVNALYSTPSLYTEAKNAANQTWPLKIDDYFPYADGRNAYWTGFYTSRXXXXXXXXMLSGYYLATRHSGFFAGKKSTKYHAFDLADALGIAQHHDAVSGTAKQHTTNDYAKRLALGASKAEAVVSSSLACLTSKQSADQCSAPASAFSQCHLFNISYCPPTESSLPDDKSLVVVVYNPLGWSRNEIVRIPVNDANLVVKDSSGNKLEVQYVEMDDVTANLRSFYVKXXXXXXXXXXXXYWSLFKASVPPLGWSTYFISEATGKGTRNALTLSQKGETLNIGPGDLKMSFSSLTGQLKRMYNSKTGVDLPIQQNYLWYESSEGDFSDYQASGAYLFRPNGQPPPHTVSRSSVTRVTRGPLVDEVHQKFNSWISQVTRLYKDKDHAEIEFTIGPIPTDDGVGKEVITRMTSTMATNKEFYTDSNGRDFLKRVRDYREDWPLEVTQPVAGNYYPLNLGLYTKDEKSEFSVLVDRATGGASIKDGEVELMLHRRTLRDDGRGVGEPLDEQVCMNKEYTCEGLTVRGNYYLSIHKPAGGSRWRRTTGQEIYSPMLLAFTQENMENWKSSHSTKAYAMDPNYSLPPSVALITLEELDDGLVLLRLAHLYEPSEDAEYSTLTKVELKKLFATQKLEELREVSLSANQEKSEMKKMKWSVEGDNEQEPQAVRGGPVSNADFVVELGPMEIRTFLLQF
The experiment in a line: Inhibition of jack bean alpha-mannosidase assessed as reduction of p-nitrophenol release using p-nitrophenyl glycoside as substrate at 1000 uM by spectrophotometric analysis relative to control.

The nature of test [2]: Inhibition of bovine liver beta-glucuronidase assessed as reduction of p-nitrophenol release using p-nitrophenyl-glycoside as substrate by spectrophotometric analysis. Also noted: species or system Bos taurus.
The next test deals with Aspergillus niger. The experiment in a line: Inhibition of Aspergillus niger amyloglucosidase assessed as reduction of p-nitrophenol release using p-nitrophenyl-glycoside as substrate at 1000 uM by spectrophotometric analysis relative to control.
Test [3] is described as follows: Inhibition of rice alpha-glucosidase assessed as reduction of p-nitrophenol release using p-nitrophenyl glycoside as substrate by spectrophotometric analysis. Set-up: species or system Oryza sativa.
The species entered for the next test is Sus scrofa. Briefly: Inhibition of porcine kidney alpha/alpha-trehalase assessed as reduction of p-nitrophenol release using p-nitrophenyl glycoside as substrate at 1000 uM by spectrophotometric analysis relative to control.
Test [4] is described as follows: Inhibition of human lysosomal beta-glucosidase assessed as reduction of p-nitrophenol release using p-nitrophenyl glycoside as substrate by spectrophotometric analysis.
Test [5] has as its target Beta-glucuronidase (Escherichia coli (strain K12)) (UniProt P05804). The experiment in a line: Inhibition of Escherichia coli beta-glucuronidase assessed as reduction of p-nitrophenol release using p-nitrophenyl-glycoside as substrate at 1000 uM by spectrophotometric analysis relative to control.
Test [6] concerns the target Alpha-glucosidase (Saccharomyces cerevisiae S288c) (UniProt P53341+P38158+P07265). The experiment in a line: Inhibition of yeast alpha-glucosidase assessed as reduction of p-nitrophenol release using p-nitrophenyl glycoside as substrate at 1000 uM by spectrophotometric analysis relative to control. It counts as protein assay.
In another test the test system is Prunus dulcis. The experiment in a line: Inhibition of almond beta-glucosidase assessed as reduction of p-nitrophenol release using p-nitrophenyl glycoside as substrate at 1000 uM by spectrophotometric analysis relative to control.
The next test deals with Helix pomatia. Briefly: Inhibition of snail beta-mannosidase assessed as reduction of p-nitrophenol release using p-nitrophenyl glycoside as substrate at 1000 uM by spectrophotometric analysis relative to control.
Test [7] can be described thus: Inhibition of rat intestinal maltase assessed as D-glucose release using maltose as substrate at pH 6.8 by colorimetric method.
For test [8], the target named is T2, Tissue alpha-L-fucosidase (Bos taurus) (UniProt Q2KIM0).
T2 sequence (whole entry): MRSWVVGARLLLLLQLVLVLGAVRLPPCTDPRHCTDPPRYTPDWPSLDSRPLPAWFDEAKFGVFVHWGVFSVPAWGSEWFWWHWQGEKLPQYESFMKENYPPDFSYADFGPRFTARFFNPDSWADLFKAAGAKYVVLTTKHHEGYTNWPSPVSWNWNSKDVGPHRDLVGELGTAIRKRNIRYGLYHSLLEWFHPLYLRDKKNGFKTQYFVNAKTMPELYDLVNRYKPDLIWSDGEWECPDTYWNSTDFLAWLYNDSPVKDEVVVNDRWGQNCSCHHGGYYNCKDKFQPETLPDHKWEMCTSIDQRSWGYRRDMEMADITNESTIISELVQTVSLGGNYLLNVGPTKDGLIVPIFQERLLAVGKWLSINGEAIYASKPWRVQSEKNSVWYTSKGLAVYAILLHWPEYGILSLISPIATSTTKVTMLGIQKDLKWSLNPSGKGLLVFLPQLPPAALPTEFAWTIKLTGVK
The experiment in a line: Inhibition of bovine kidney alpha-L-fucosidase assessed as reduction of p-nitrophenol release using p-nitrophenyl glycoside as substrate at 1000 uM by spectrophotometric analysis relative to control.

For another test, the system named is Penicillium decumbens. The experiment in a line: Inhibition of Penicillium decumbens alpha-L-rhamnosidase assessed as reduction of p-nitrophenol release using p-nitrophenyl-glycoside as substrate at 1000 uM by spectrophotometric analysis relative to control.
A further test is filed under the species Bos taurus. The experiment in a line: Inhibition of bovine liver beta-glucosidase assessed as reduction of p-nitrophenol release using p-nitrophenyl glycoside as substrate at 1000 uM by spectrophotometric analysis relative to control.
Test [9] is described as follows: Inhibition of bovine liver beta-galactosidase assessed as reduction of p-nitrophenol release using p-nitrophenyl glycoside as substrate by spectrophotometric analysis. Also noted: species or system Bos taurus.
The target in test [10] is Alpha-galactosidase (Coffea arabica) (UniProt Q42656). Briefly: Inhibition of coffee beans alpha-galactosidase assessed as reduction of p-nitrophenol release using p-nitrophenyl glycoside as substrate at 1000 uM by spectrophotometric analysis relative to control.
Test [11] is described as follows: Inhibition of human beta-glucosidase.

Sequence of Beta-glucuronidase (Escherichia coli (strain K12)) (P05804 whole entry, looked up): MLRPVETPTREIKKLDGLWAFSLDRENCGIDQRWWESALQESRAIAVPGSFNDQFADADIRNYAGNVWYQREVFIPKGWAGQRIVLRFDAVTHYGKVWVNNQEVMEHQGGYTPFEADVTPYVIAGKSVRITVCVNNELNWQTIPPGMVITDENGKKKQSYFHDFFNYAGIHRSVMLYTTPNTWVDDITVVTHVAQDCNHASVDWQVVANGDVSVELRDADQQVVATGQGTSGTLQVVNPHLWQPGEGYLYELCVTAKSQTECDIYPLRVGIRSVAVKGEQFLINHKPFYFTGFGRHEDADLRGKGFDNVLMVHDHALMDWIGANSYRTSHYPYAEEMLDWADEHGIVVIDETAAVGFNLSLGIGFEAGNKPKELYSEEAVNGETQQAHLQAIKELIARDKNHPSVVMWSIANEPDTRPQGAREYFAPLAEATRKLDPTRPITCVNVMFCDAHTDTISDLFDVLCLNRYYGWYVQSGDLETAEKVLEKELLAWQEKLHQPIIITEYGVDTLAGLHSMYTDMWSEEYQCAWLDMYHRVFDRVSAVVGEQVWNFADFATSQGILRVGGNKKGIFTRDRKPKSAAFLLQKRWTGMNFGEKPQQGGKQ
Sequence of Alpha-galactosidase (Coffea arabica) (Q42656 16-378 limits assumed): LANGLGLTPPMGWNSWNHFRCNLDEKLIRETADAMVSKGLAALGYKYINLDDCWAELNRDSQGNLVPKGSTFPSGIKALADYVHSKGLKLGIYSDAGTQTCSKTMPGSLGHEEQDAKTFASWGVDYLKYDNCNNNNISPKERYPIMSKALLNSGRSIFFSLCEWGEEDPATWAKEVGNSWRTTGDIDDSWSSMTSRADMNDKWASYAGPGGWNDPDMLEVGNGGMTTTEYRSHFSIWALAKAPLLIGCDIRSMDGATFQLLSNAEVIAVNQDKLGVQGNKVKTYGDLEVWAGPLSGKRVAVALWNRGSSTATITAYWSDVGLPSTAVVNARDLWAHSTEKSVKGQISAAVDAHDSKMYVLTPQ

On to `Cc1ccc(CCCCCC[C@@H](O)[C@@H]2N[C@@H](CO)[C@H](O)[C@H]2O)cc1`, for which the inhibition (as a rule, the share of the control response that was lost under treatment) worked out at 9.3% in [1]; 11.3% in the test on Aspergillus niger; 0% in the test listed under Sus scrofa; 24.5% in [5]; 37.6% in [6]; 14.7% in the test with Prunus dulcis. In addition, the inhibition was determined as 0% in the test with Helix pomatia; 0% in test [8]; 2.1% with Penicillium decumbens; 45.4% in the test listed under Bos taurus; 1.6% in [10]. Also, the IC50 (commonly the concentration that inhibits the measured activity by half) was 65 µM in test [2]; 63 µM in test [3]; 25 µM in [4]; 13 µM in test [7]; 46 µM in test [9].

Turning to `CCCCCCCCCCCCCC1N[C@H](CO)[C@@H](O)[C@@H]1O` (some centres not stated), in [11], half-maximal inhibition (IC50) required 0.77 µM.
